Common to all, as to test: relative viability (nuclei count vs DMSO), 5 days (fraction); higher = more cells survive
Compound in test [1]: C1=CC2=NC=CN=C2C=C1/C=C/3\C(=O)NC(=O)S3 + C[C@]1(O)C[C@@H](c2nc(-c3ccc4ccc(-c5ccccc5)nc4c3)c3c(N)nccn32)C1 [Linsitinib] (partner 1 µM)
In a few lines: (§1)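 Relative viability equals treated-well nuclei counts divided by vehicle-well nuclei counts. Counts came from 4× images of lung cancer cell lines grown in 1536-well plates for 5 days after pin-tool dosing on the day after seeding. Dosing used one drug alone or a fixed anchor-drug dose plus five library-drug doses (not always all listed) in √10 steps, and values are medians of duplicate plates.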

Compound in test [2]: CCN1CCN(c2ccc(Nc3cc(N(C)C(=O)Nc4c(Cl)c(OC)cc(OC)c4Cl)ncn3)cc2)CC1 [BGJ398] + N=C(N)NC(=N)NCCc1ccccc1 [Phenformin] (partner 250 µM)
In a few lines:
as §1

Compound in test [3]: C1=CC2=NC=CN=C2C=C1/C=C/3\C(=O)NC(=O)S3 + O=C(c1cc(Cc2n[nH]c(=O)c3ccccc23)ccc1F)N1CCN(C(=O)C2CC2)CC1 [Olaparib] (partner 8 µM)
In outline: as §1

Compound in test [4]: CCN1CCN(c2ccc(Nc3cc(N(C)C(=O)Nc4c(Cl)c(OC)cc(OC)c4Cl)ncn3)cc2)CC1 [BGJ398] + CC(=O)Nc1cccc(-n2c(=O)n(C3CC3)c(=O)c3c(Nc4ccc(I)cc4F)n(C)c(=O)c(C)c32)c1 [Trametinib] (partner 0.02 µM)
In outline: as §1

Turning to UMC-11, the relative viability turned out to be 1.02 in test [1] (first compound 0.02 µM); 1.12 in test [1] (first compound 0.06325 µM); 1.05 in test [1] (first compound 0.2 µM); 0.989 in test [1] (first compound 0.6325 µM); 1.11 in test [1] (first compound 2 µM); 0.325 in test [2] (first compound 0.01 µM). For the same cell line, the relative viability in test [2] (first compound 0.03162 µM) was found to be 0.344; in test [2] (first compound 0.1 µM) it was 0.391; in test [2] (first compound 0.3162 µM) it was 0.341; in test [2] (first compound 1 µM), 0.341; in test [3] (first compound 0.02 µM) it was 0.336; in test [3] (first compound 0.06325 µM), 0.423. Also, the relative viability in test [3] (first compound 0.2 µM) came to 0.391; in test [3] (first compound 0.6325 µM), 0.336; in test [3] (first compound 2 µM) it was 0.379; in test [4] (first compound 0.01 µM) it was 0.671; in test [4] (first compound 0.03162 µM) it was 0.749; in test [4] (first compound 0.1 µM) it was 0.808. Also, the relative viability in test [4] (first compound 0.3162 µM) came to 0.622; in test [4] (first compound 1 µM), 0.55.

The values above are taken from the supplement of paper PMC10307832.
